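Step 1: Grow cells in 96-well plates. Step 2: Expose to compound for 48 hours at 5 concentrations. Step 3: Interpolate endpoints linearly; if unreached, use highest concentration. TGI marks complete inhibition of growth.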
Assays:
Experiment in all cases: DTP human tumour cell line panel, 48 h
[1] = system: UACC-62 melanoma
[2] = system: M14 melanoma
[3] = system: SK-MEL-2 melanoma
[4] = system: NCI-H23 lung
[5] = system: HOP-62 NSCLC
[6] = system: LOX IMVI melanoma
[7] = system: OVCAR-4 ovarian
[8] = system: SNB-75 CNS
[9] = system: NCI-H522 lung
[10] = system: MDA-MB-231 breast

Row | Structure (SMILES) | TGI [1] [µM] | TGI [2] [µM] | TGI [3] [µM] | TGI [4] [µM] | TGI [5] [µM] | TGI [6] [µM] | TGI [7] [µM] | TGI [8] [µM] | TGI [9] [µM] | TGI [10] [µM]
1 | CCN(CC)C(=O)Cn1c2c(c3ccccc31)CCCC2 | > 100 | > 100 | > 100 | > 100 | > 100 | > 100 | – | – | – | –
2 | COC(NC(=O)Nc1ccccc1C)(C(F)(F)F)C(F)(F)F | > 100 | > 100 | – | > 100 | > 100 | > 100 | > 100 | > 100 | > 100 | –
3 | CC(C)(C)C1=C(Br)C(O)(C(C)(C)C)OP1(=O)c1ccccc1 (stereo not given) | > 100 | – | > 100 | > 100 | > 100 | > 100 | > 100 | > 100 | > 100 | > 100
4 | CCOC(=O)c1cc(Br)c(-c2onc(C)c2Br)[nH]1 | > 100 | > 100 | > 100 | > 100 | 49.9 | > 100 | > 100 | > 100 | – | 45.5
5 | COc1ccccc1NC(=O)CC(=O)NN | > 100 | – | > 100 | > 100 | > 100 | > 100 | > 100 | > 100 | > 100 | > 100
6 | CCN(CC)CC1CCCCN1CC(=O)N1CC(C)C(=O)Nc2ccccc21 (stereo not given) | > 100 | > 100 | – | > 100 | > 100 | > 100 | > 100 | – | – | –
7 | O=C1/C(=C/c2cccc3ccccc23)CCc2ccc([N+](=O)[O-])cc21 | 65.8 | > 100 | – | > 100 | > 100 | > 100 | – | 42.1 | – | > 100
8 | CCCCN(C)/N=N/c1nc[nH]c1C(N)=O | > 100 | – | > 100 | > 100 | – | > 100 | > 100 | > 100 | > 100 | –
9 | CC(C)CCOC(=O)NC(Nc1ccc(F)cc1)(C(F)(F)F)C(F)(F)F | > 100 | > 100 | > 100 | > 100 | > 100 | > 100 | – | > 100 | 69.4 | 76.1
10 | O=C(O)/C=C\C(=O)Nn1c(Cc2ccc(Cl)cc2)n[nH]c1=O | > 100 | > 100 | > 100 | > 100 | > 100 | – | > 100 | – | > 100 | > 100
11 | [N-]=[N+]=NCC(O)Cn1cnc2c(NC(=O)c3ccccc3)ncnc21 (stereo not given) | > 100 | > 100 | > 100 | > 100 | > 100 | > 100 | > 100 | > 100 | > 100 | –
12 | Cn1c(=O)sc2cc(C(=S)N3CCCCC3)ccc21 | > 100 | > 100 | > 100 | > 100 | > 100 | > 100 | – | 86.5 | – | > 100

Reference: PubChem BioAssay (NCI)
